Patent US6180388A, “Enzymes and micro organisms with amidase activity which hydrolyze polyamides” (Rhone-Poulenc Fibres et Polymeres S.A., priority 1995, dated 2001)

Columns and labels:
[1] = system: Comamonas acidovorans N 12; assay: Enzymatic hydrolysis of PA 6.6 oligomers, activity of the wild-type microorganism; format: cell-based; conditions: 28° C., 10.5 mmol/l phosphate buffer pH 7.5
Text: 2.2 ENZYMATIC HYDROLYSIS--MEASUREMENT OF ACTIVITY OF THE WILD-TYPE MICROORGANISM: […]

[2] = polyamide 66 labeled with carbon 14; cited from earlier work

NCCCCCCNC(=O)CCCCC(=O)NCCCCCCNC(=O)CCCCC(=O)O [ABAB]
hydrolysis ABAB → BAB + A ([1]; substrate 1.4 g/l): 410 mg of BAB/h.g of dry cells

O=C(O)CCCCC(=O)NCCCCCCNC(=O)CCCCC(=O)O [ABA]
hydrolysis ABA → AB + A ([1]; substrate 2.6 g/l): 215 mg of AB/h.g of dry cells

NCCCCCCNC(=O)CCCCC(=O)O [AB]
hydrolysis AB → A + B ([1]; substrate 1.4 g/l): 280 mg of A/h.g of dry cells

trypsin [reference compound]
degradation of polyamide 66 [2]: degrade polyamide 66 slightly

B1: papain: known enzyme of the prior art (protein, UniProt P00784 134-345, looked up)
Papain: IPEYVDWRQKGAVTPVKNQGSCGSCWAFSAVVTIEGIIKIRTGNLNEYSEQELLDCDRRSYGCNGGYPWSALQLVAQYGIHYRNTYPYEGVQRYCRSREKGPYAAKTDGVRQVQPYNEGALLYSIANQPVSVVLEAAGKDFQLYRGGIFVGPCGNKVDHAVAAVGYGPNYILIKNSWGTGWGENGYIRIKRGTGNSYGVCGLYTSSFYPVKN
degradation of polyamide 66 [2]: degrade polyamide 66 slightly
